Laboratory results: ChEMBL document CHEMBL1201862, “PubChem BioAssay data set” (2004)
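Growth conditions: 96-well plates. Treatment: test compound, 48 hours, 5 concentrations. Analysis: linear interpolation between bracketing concentrations; unreached endpoints set to highest concentration. GI50 marks 50% less growth.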 Active and inactive are the calls of the source. Rule as the data show it: active = GI50 up to about 1.1 µM and inactive = higher.

Experiments:
Test in all cases: inhibition of tumour cell growth, NCI panel, 48 h
DMS-114 = tested on: DMS-114
TK-10 = tested on: TK-10
HOP-62 = tested on: HOP-62
SF-539 = tested on: SF-539
SK-MEL-5 = tested on: SK-MEL-5
HL-60 = tested on: HL-60
OVCAR-4 = tested on: OVCAR-4
SR = tested on: SR
HT-29 = tested on: HT-29
SF-295 = tested on: SF-295
K562 = tested on: K562
DMS-273 = tested on: DMS-273
OVCAR-8 = tested on: OVCAR-8
SK-MEL-2 = tested on: SK-MEL-2
MOLT-4 = tested on: MOLT-4
UACC-257 = tested on: UACC-257
KM12 = tested on: KM12
Malme-3M = tested on: Malme-3M
XF498 = tested on: XF498
OVCAR-5 = tested on: OVCAR-5
A549 = tested on: A549
EKVX = tested on: EKVX
HCT-15 = tested on: HCT-15
CAKI-1 = tested on: CAKI-1
LOX IMVI = tested on: LOX IMVI
ACHN = tested on: ACHN
SF-268 = tested on: SF-268
HOP-18 = tested on: HOP-18
SK-MEL-28 = tested on: SK-MEL-28
NCI-H522 = tested on: NCI-H522
RPMI-8226 = tested on: RPMI-8226
M14 = tested on: M14
OVCAR-3 = tested on: OVCAR-3
NCI-H460 = tested on: NCI-H460
M19-MEL = tested on: M19-MEL
COLO 205 = tested on: COLO 205
SW-620 = tested on: SW-620
SN12C = tested on: SN12C
SNB-78 = tested on: SNB-78
DLD-1 = tested on: DLD-1
SNB-19 = tested on: SNB-19
CCRF-CEM = tested on: CCRF-CEM
SNB-75 = tested on: SNB-75
HCC 2998 = tested on: HCC 2998
NCI-H226 = tested on: NCI-H226
786-0 = tested on: 786-0
UO-31 = tested on: UO-31
HCT-116 = tested on: HCT-116
NCI-H23 = tested on: NCI-H23
SK-OV-3 = tested on: SK-OV-3
LXFL 529 = tested on: LXFL 529
IGROV-1 = tested on: IGROV-1
RXF 393 = tested on: RXF 393
KM-20L2 = tested on: KM-20L2
U-251 = tested on: U-251
HOP-92 = tested on: HOP-92
A498 = tested on: A498
UACC-62 = tested on: UACC-62

`CC(=O)Nc1ccc(C(=O)N2N=C(C)/C(=C/c3ccccc3O)C2=O)cc1` was tested, and the GI50 (DMS-114) was > 100 µM (inactive), the GI50 (TK-10) was > 100 µM (inactive) and the GI50 (HOP-62) was > 100 µM (inactive). For the same compound, the GI50 (SF-539) was > 100 µM (inactive), the GI50 (SK-MEL-5) was > 100 µM (inactive) and the GI50 (HL-60) was > 100 µM (inactive). The GI50 (OVCAR-4) was > 100 µM (inactive), the GI50 (SR) was > 100 µM (inactive) and the GI50 (HT-29) was > 100 µM (inactive). The GI50 (SF-295) was > 100 µM (inactive), the GI50 (K562) was > 100 µM (inactive) and the GI50 (DMS-273) was > 100 µM (inactive). The GI50 (OVCAR-8) was > 100 µM (inactive), the GI50 (SK-MEL-2) was > 100 µM (inactive) and the GI50 (MOLT-4) was > 100 µM (inactive). The GI50 (UACC-257) was > 100 µM (inactive), the GI50 (KM12) was > 100 µM (inactive) and the GI50 (Malme-3M) was > 100 µM (inactive). The GI50 (XF498) was > 100 µM (inactive), the GI50 (OVCAR-5) was > 100 µM (inactive) and the GI50 (A549) was > 100 µM (inactive). The GI50 (EKVX) was > 100 µM (inactive), the GI50 (HCT-15) was greater than 100 µM and the GI50 (CAKI-1) was > 100 µM (inactive). For the same compound, the GI50 (LOX IMVI) was > 100 µM (inactive), the GI50 (ACHN) was > 100 µM (inactive) and the GI50 (SF-268) was > 100 µM (inactive). The GI50 (HOP-18) was 49.3 µM (inactive), the GI50 (SK-MEL-28) was > 100 µM (inactive) and the GI50 (NCI-H522) was > 100 µM (inactive). For the same compound, the GI50 (RPMI-8226) was > 100 µM (inactive), the GI50 (M14) was > 100 µM (inactive) and the GI50 (OVCAR-3) was > 100 µM (inactive). The GI50 (NCI-H460) was > 100 µM (inactive), the GI50 (M19-MEL) was > 100 µM (inactive) and the GI50 (COLO 205) was > 100 µM (inactive). The GI50 (SW-620) was > 100 µM (inactive), the GI50 (SN12C) was > 100 µM (inactive) and the GI50 (SNB-78) was > 100 µM (inactive). For the same compound, the GI50 (DLD-1) was > 100 µM (inactive), the GI50 (SNB-19) was > 100 µM (inactive) and the GI50 (CCRF-CEM) was > 100 µM (inactive). For the same compound, the GI50 (SNB-75) was > 100 µM (inactive), the GI50 (HCC 2998) was > 100 µM (inactive) and the GI50 (NCI-H226) was > 100 µM (inactive). For the same compound, the GI50 (786-0) was > 100 µM (inactive), the GI50 (UO-31) was > 100 µM (inactive) and the GI50 (HCT-116) was > 100 µM (inactive). The GI50 (NCI-H23) was > 100 µM (inactive).
For `CSCCOC(=O)C(=[N+]=[N-])c1ccc([N+](=O)[O-])cc1`, the GI50 (DMS-114) was > 100 µM (inactive), the GI50 (TK-10) was > 100 µM (inactive) and the GI50 (SK-OV-3) was > 100 µM (inactive). For the same compound, the GI50 (HOP-62) was > 100 µM (inactive), the GI50 (SF-539) was > 100 µM (inactive) and the GI50 (HL-60) was > 100 µM (inactive). The GI50 (OVCAR-4) was > 100 µM (inactive), the GI50 (SR) was > 100 µM (inactive) and the GI50 (HT-29) was > 100 µM (inactive). The GI50 (SF-295) was > 100 µM (inactive), the GI50 (K562) was > 100 µM (inactive) and the GI50 (DMS-273) was > 100 µM (inactive). For the same compound, the GI50 (OVCAR-8) was > 100 µM (inactive), the GI50 (SK-MEL-2) was > 100 µM (inactive) and the GI50 (LXFL 529) was > 100 µM (inactive). The GI50 (MOLT-4) was > 100 µM (inactive), the GI50 (UACC-257) was > 100 µM (inactive) and the GI50 (IGROV-1) was > 100 µM (inactive). For the same compound, the GI50 (KM12) was > 100 µM (inactive), the GI50 (Malme-3M) was > 100 µM (inactive) and the GI50 (XF498) was > 100 µM (inactive). The GI50 (OVCAR-5) was > 100 µM (inactive), the GI50 (A549) was > 100 µM (inactive) and the GI50 (EKVX) was > 100 µM (inactive). The GI50 (HCT-15) was greater than 100 µM, the GI50 (CAKI-1) was > 100 µM (inactive) and the GI50 (LOX IMVI) was > 100 µM (inactive). The GI50 (ACHN) was > 100 µM (inactive), the GI50 (SF-268) was > 100 µM (inactive) and the GI50 (SK-MEL-28) was > 100 µM (inactive). The GI50 (NCI-H522) was > 100 µM (inactive), the GI50 (RPMI-8226) was > 100 µM (inactive) and the GI50 (M14) was > 100 µM (inactive). The GI50 (OVCAR-3) was > 100 µM (inactive), the GI50 (NCI-H460) was > 100 µM (inactive) and the GI50 (RXF 393) was > 100 µM (inactive). The GI50 (COLO 205) was > 100 µM (inactive), the GI50 (SW-620) was > 100 µM (inactive) and the GI50 (SN12C) was > 100 µM (inactive). For the same compound, the GI50 (DLD-1) was > 100 µM (inactive), the GI50 (SNB-19) was > 100 µM (inactive) and the GI50 (CCRF-CEM) was > 100 µM (inactive). The GI50 (SNB-75) was > 100 µM (inactive), the GI50 (KM-20L2) was > 100 µM (inactive) and the GI50 (HCC 2998) was > 100 µM (inactive). For the same compound, the GI50 (NCI-H226) was > 100 µM (inactive), the GI50 (786-0) was > 100 µM (inactive) and the GI50 (UO-31) was > 100 µM (inactive). The GI50 (HCT-116) was > 100 µM (inactive), the GI50 (NCI-H23) was > 100 µM (inactive) and the GI50 (U-251) was > 100 µM (inactive).
`O=S(=O)(c1ccccc1)n1cc(C[P+](c2ccccc2)(c2ccccc2)c2ccccc2)c2ccccc21` was tested, and the GI50 (DMS-114) was 3.37 µM (inactive), the GI50 (TK-10) was 3.69 µM (inactive) and the GI50 (SK-OV-3) was 2.5 µM (inactive). For the same compound, the GI50 (HOP-62) was 3.19 µM (inactive), the GI50 (SF-539) was 4.59 µM (inactive) and the GI50 (SK-MEL-5) was 1.67 µM (inactive). The GI50 (HOP-92) was 1.87 µM (inactive), the GI50 (HL-60) was 2.04 µM (inactive) and the GI50 (OVCAR-4) was 9.95 µM (inactive). The GI50 (SR) was 5.2 µM (inactive), the GI50 (HT-29) was 3.4 µM (inactive) and the GI50 (SF-295) was 12 µM (inactive). The GI50 (A498) was 15.6 µM (inactive), the GI50 (K562) was 2.65 µM (inactive) and the GI50 (DMS-273) was 3.21 µM (inactive). For the same compound, the GI50 (OVCAR-8) was 2.81 µM (inactive), the GI50 (SK-MEL-2) was 2.3 µM (inactive) and the GI50 (LXFL 529) was 1.48 µM (inactive). For the same compound, the GI50 (MOLT-4) was 4.91 µM (inactive), the GI50 (IGROV-1) was 2.08 µM (inactive) and the GI50 (KM12) was 3.6 µM (inactive). The GI50 (Malme-3M) was 4.38 µM (inactive), the GI50 (XF498) was 3.6 µM (inactive) and the GI50 (OVCAR-5) was 17.2 µM (inactive). The GI50 (A549) was 10.9 µM (inactive), the GI50 (EKVX) was 3.33 µM (inactive) and the GI50 (HCT-15) was 16.6 µM. For the same compound, the GI50 (CAKI-1) was 13.9 µM (inactive), the GI50 (LOX IMVI) was 3.57 µM (inactive) and the GI50 (ACHN) was 15.3 µM (inactive). The GI50 (SF-268) was 5.66 µM (inactive), the GI50 (SK-MEL-28) was 2.7 µM (inactive) and the GI50 (NCI-H522) was 2.36 µM (inactive). For the same compound, the GI50 (RPMI-8226) was 0.6 µM (active), the GI50 (M14) was 2.64 µM (inactive) and the GI50 (OVCAR-3) was 2.95 µM (inactive). The GI50 (NCI-H460) was 2.91 µM (inactive), the GI50 (M19-MEL) was 4.29 µM (inactive) and the GI50 (RXF 393) was 6.35 µM (inactive). For the same compound, the GI50 (COLO 205) was 1.99 µM (inactive), the GI50 (SW-620) was 4.59 µM (inactive) and the GI50 (SN12C) was 5.69 µM (inactive). For the same compound, the GI50 (SNB-78) was 5.71 µM (inactive), the GI50 (DLD-1) was 2.46 µM (inactive) and the GI50 (UACC-62) was 5.12 µM (inactive). The GI50 (SNB-19) was 2.61 µM (inactive), the GI50 (CCRF-CEM) was 2.43 µM (inactive) and the GI50 (SNB-75) was 3.25 µM (inactive). For the same compound, the GI50 (KM-20L2) was 4.89 µM (inactive), the GI50 (HCC 2998) was 3.36 µM (inactive) and the GI50 (NCI-H226) was 4.81 µM (inactive). The GI50 (786-0) was 5.04 µM (inactive), the GI50 (UO-31) was 3.38 µM (inactive) and the GI50 (HCT-116) was 3.81 µM (inactive). The GI50 (NCI-H23) was 2.99 µM (inactive) and the GI50 (U-251) was 3.79 µM (inactive).
